Measured values reported in a melting point compilation (Tetko et al.; mined from patent text by program, amines drawn as free bases though some values may be those of a salt).

With `N#CC1CCN(CCc2ccc(F)cc2)CC1` the melting point was 47 to 48 °C. `CC(Oc1cccc(C(=O)NCCN(O)C(N)=O)c1)c1ccccc1` (configuration not stated) showed a melting point of 164 to 165 °C. In the case of `CC(C)Cc1ccc(C(=O)O)cc1C#N`, the melting point is reported as 118 °C. Work on `O=Cc1ccc(NCc2cccc(Cl)c2)cn1` yielded a melting point of 102 to 105 °C. `COC(=O)C1=C(C)NC(C)=C(C(=O)OCCCCCCCCCCO)[C@H]1c1cccc2nonc12` showed a melting point of 120 °C. Work on `O=C1OC(=O)c2c1cccc2-c1ccccc1` yielded a melting point of 148 to 149 °C. With `O=C(Nc1ccc(NCc2ccccc2)cc1)C(=O)N1CCC(Cc2ccccc2)CC1` the melting point was 126 to 128 °C. Work on `Clc1ccc2nc(Cl)c3nnc(-c4ccccc4)n3c2c1` yielded a melting point of 305 to 307 °C. Work on `COc1c(C)c2c(c(OS(C)(=O)=O)c1C/C=C(/Cl)CBr)C(=O)OC2` yielded a melting point of 146 to 148 °C. In the case of `CN(C)C(=O)OC1CCN(c2ncc(-c3ccccc3Cl)cn2)CC1`, the melting point is reported as 86 to 88 °C. Compound `CC(=O)OC1CSC(Oc2cncc(-c3c(C)n[nH]c3C)c2)C(OC(C)=O)C1OC(C)=O` (configuration not stated) has a melting point of 95 °C. Work on `CC(=O)Nc1nnc(S(=O)(=O)Cc2ccccc2)o1` yielded a melting point of 245 to 248 °C. Work on `Cc1cc(SCc2sc(-c3ccc(C(F)(F)F)cc3)nc2C)c2c(c1OCC(=O)O)CCC2` yielded a melting point of 184 °C. `COc1cccc(C(=O)c2cccc(F)c2)c1` showed a melting point of 56 to 67 °C. For `CC(C)(C)CC(C)(C)c1cc(-c2ccccc2)c(O)c(-n2nc3ccc(-c4ccccc4)cc3n2)c1`, the melting point was 123 to 125 °C. `O=c1c(O)cn(-c2ccccc2F)nc1-c1ccnn1-c1ccccc1` showed a melting point of 218 to 220 °C. For `O=C(Nc1nc(-c2ccco2)c(-c2ccncc2)s1)c1cc[nH]c(=O)c1`, the melting point was 277 to 281 °C. In the case of `Nc1nc2c(OCCO)cccc2o1`, the melting point is reported as 124 to 126 °C. In the case of `CCc1nc2c(O)cc(C(=O)N(C)C)cc2n1C`, the melting point is reported as 193 to 199 °C. Work on `COc1cc(CCNC(=O)Cc2ccc(Br)cc2)cc(OC)c1` yielded a melting point of 86 to 88 °C. Work on `CCNc1cc(Oc2ccc(NC(=O)NC3Cc4ccc(Br)cc4C3)cc2)ncn1` (configuration not stated) yielded a melting point of 247 °C. With `CSC(=NC(=O)N(C)C)NC(=O)NC(C)(C)C` the melting point was 74 to 78 °C. With `O=C(Nc1cccc(Oc2ccccn2)c1)c1ccn2c1CSC2c1cccnc1` (configuration not stated) the melting point was 132 °C. `CCOC(=O)[C@H](Cc1c[nH]c2ccccc12)NC(=O)OCc1ccccc1` showed a melting point of 80 to 83 °C. In the case of `CNC(=O)c1ccccc1Nc1nc(Nc2cc3c(cc2OC)CC(=O)NCC3)ncc1Cl`, the melting point is reported as > 250 °C. Compound `COc1ccc(S(=O)(=O)N2C(=O)C(c3ccccc3OC)(N3c4ccccc4C[C@H]3C(=O)N(C)C)c3cc(Cl)ccc32)c(OC)c1` (some centres not stated) has a melting point of 167 °C. `Clc1cnc2cnc(Cl)nc2c1` showed a melting point of 177 to 178 °C. For `CC(C)c1cc(C(C)C)c(CC(=O)NS(=O)(=O)Oc2c(C(C)C)cc(N(CCO)CCO)cc2C(C)C)c(C(C)C)c1`, the melting point was 143 to 146 °C. `COC(=O)c1cccc(C(=O)N(C)c2ccc3c(=O)n4c(nc3c2)C(=Cc2ccccc2)CC4)c1` gave a melting point of 200 to 202 °C. In the case of `COc1ccc(NC(=O)c2ccc(OC)c3oc4ccc(NC(C)=O)cc4c23)cc1`, the melting point is reported as 285 °C. Compound `O=[N+]([O-])c1ccc(SSc2ncccn2)c(C(Cl)(Cl)Cl)c1` has a melting point of 98 to 99 °C. With `CS(=O)(=O)Oc1cnc2ccccc2c1O` the melting point was 224 °C. Work on `CC(C)(C)OC(=O)NC(Cc1ccccc1)C(=O)Oc1ccc2ccccc2c1` (configuration not stated) yielded a melting point of 118 to 119 °C. Compound `CCCCCS(=O)(=O)NC(=O)/C=C/c1ccc(OCC(COC(C)C)OC(C)=O)cc1Oc1ncc(C(F)(F)F)cc1Cl` (configuration not stated) has a melting point of 101 to 103 °C. `CCOC(=O)COc1cccc2c1CCC2=O` gave a melting point of 91 to 93 °C. Work on `CCN(CC)c1ccc(-c2cc(-c3ccc(C(=O)O)cc3)ccc2CCCNC(C)(C)C)cc1C(C)(C)C` yielded a melting point of 273 °C. For `NC(=S)Nc1ccccc1-c1ccc(F)cc1`, the melting point was 140 to 142 °C. `CSc1nc2c(cc1Cl)N(C(=O)Nc1cccnc1)CC2` gave a melting point of 266 to 267 °C. In the case of `CCCCc1nc(Cl)c(COCc2ccccc2C(=O)O)n1Cc1ccc(-c2ccccc2-c2nnn[nH]2)cc1`, the melting point is reported as 109 to 111 °C. `CCOc1ccc2[nH]c3c(c2c1)C[C@@](C)(C(=O)OC)N[C@@H]3c1cccc(O)c1` (racemic) gave a melting point of 173 to 175 °C. With `S=C1CN=C(c2ccccc2Cl)c2cc(CCc3ccccc3)sc2N1` the melting point was 175 to 176 °C. For `O=NCNC1=Nc2ccccc2N(c2ccccc2)C(=O)C1`, the melting point was 139 to 140 °C. With `CCn1c(N)c(C(N)=O)c(=O)c2cnc(Nc3ccc(N4CCN(C(C)=O)CC4)cc3)nc21` the melting point was 179 °C. Compound `CCCCC[C@H]1CC[C@H](c2ccc(Br)nn2)CC1` has a melting point of 101 to 103 °C. With `Cn1cc(-n2c(-c3cccc(F)c3)nc3c(Cl)ncnc32)ccc1=O` the melting point was 219 °C. With `OCC1CC(n2c(N3CCC3)nc3cc(Cl)c(Cl)cc32)C(O)C1O` (configuration not stated) the melting point was 221 to 222 °C. Work on `CC(=O)OC1CSC(Oc2cncc(-c3cnn(C)c3)c2)C(OC(C)=O)C1OC(C)=O` (configuration not stated) yielded a melting point of 68 °C. `CCC[C@H]1CN(c2c(F)cc3c(=O)c(C(=O)O)cn([C@@H]4C[C@@H]4F)c3c2OC)C[C@H]1N` showed a melting point of 79 to 83 °C. For `COc1cc(CC(=O)NCCOCc2ccc(C)c(C)c2)ccc1OCCN`, the melting point was 60 to 62 °C. `O=C1NC(=O)C(Nc2ccc(CCNC[C@H](O)COc3ccc(Oc4ccccc4)cc3)cc2)S1` (some centres not stated) showed a melting point of 72 to 74 °C. In the case of `CCCCc1nc(Cl)c(C(=O)OC)n1Cc1ccc2oc(-c3ccccc3-c3nnn[nH]3)c(Br)c2c1`, the melting point is reported as 110 to 112 °C. Compound `CCOC(=O)C(c1ccccc1)n1cccc1` (configuration not stated) has a melting point of 51 to 53 °C. For `CNC(=O)COC(=O)N1CCN(CCc2cc(-c3ccc(Cl)cc3)no2)CC1`, the melting point was 130 to 132 °C. Work on `CC(C)(C)OC(=O)C[C@@H](NC(=O)/C=C/S(=O)(=O)c1ccccc1)C(=O)OC(C)(C)C` yielded a melting point of 168 to 169 °C. In the case of `COc1cccc2c1C(C)(C)CC(O)(C(F)(F)F)C2Nc1cccc2c1cnn2C` (configuration not stated), the melting point is reported as 172 to 174 °C. `O=[N+]([O-])c1cccc(-c2cc3c(Cl)ncnc3o2)c1` gave a melting point of 196 to 205 °C. `COc1ccc(S(=O)(=O)N(Cc2ccccc2)C(Cc2nnn(C)n2)C(=O)NO)cc1` (configuration not stated) gave a melting point of 72 to 75 °C. `O=C(Nc1ccc(C(F)(F)F)cc1)N1CC(c2ccc(Cl)cc2)C(c2ccc(Cl)cc2)N1` (configuration not stated) showed a melting point of 242 to 243 °C. `COc1cc(C)c(C(=O)c2c(C(F)(F)F)ccnc2Cl)cc1OCc1ccccc1` showed a melting point of 116 to 117 °C. In the case of `COc1ccc(S(=O)(=O)c2ncccn2)cc1`, the melting point is reported as 72 °C. With `Cc1ccn(-c2cncc(F)c2)n1` the melting point was 70 to 72 °C. `Cc1ccc(C2CC(C(N)=O)=NN2c2ccc(S(N)(=O)=O)cc2)cc1` (configuration not stated) gave a melting point of 210 to 215 °C. With `CCCc1nc(C(=O)C(C)C)c(C#N)n1Cc1ccc(-c2ccccc2-c2nnnn2C(c2ccccc2)(c2ccccc2)c2ccccc2)cc1` the melting point was 133 to 134 °C. `Cc1c(C)c(C2CC(=O)C=C(O)C2)c(C)c2c1CC(C)(C)O2` (configuration not stated) showed a melting point of 121 to 123 °C. In the case of `COc1cc(OC)nc(NC(=O)NS(=O)(=O)c2cccc3c2SC(C)(C)C3)n1`, the melting point is reported as 190 to 192 °C. With `N#CN1CCC2(CC1)Oc1ccccc1C2n1cccc1` (configuration not stated) the melting point was 165 to 168 °C. Work on `Cc1cccc(C(=O)NC(Nc2c(Nc3cccnc3Cl)c(=O)c2=O)C(C)(C)Cc2ccccc2)c1` (configuration not stated) yielded a melting point of 234 to 235 °C. With `CS(=O)(=O)C=C(N)C1(c2ccc(Cl)cc2)CCC1` the melting point was 125 to 126 °C. Compound `CS(=O)(=O)c1nc(Cl)cc(OCc2ccccc2)n1` has a melting point of 74 to 77 °C. Work on `OCCC(O)OCn1cc(I)c2c(Cl)ncnc21` (configuration not stated) yielded a melting point of 155 to 156 °C. Compound `CC(=O)C[C@@H](Cc1ccccc1)C(=O)O` has a melting point of 71 to 73 °C. `CC[C@H](C)C(OCc1ccccc1)[C@H]1[C@H]([N+](=O)[O-])[C@H](c2ccccc2)N[C@@H]1C(=O)NCCC(=O)O` (some centres not stated) gave a melting point of 140 to 141 °C. Work on `COC(=O)CC[C@H](NC(=O)c1ccc(N(C)CCc2c(NC(C)=O)nc(NC(C)=O)[nH]c2=O)cc1)C(=O)OC` yielded a melting point of 168 to 175 °C. `CCOC(=O)CCC(S)COC(=O)C1=C(C)NC(C)=C([N+](=O)[O-])C1c1ccccc1OCc1ccccc1` (configuration not stated) showed a melting point of 133 °C. `CCC(Oc1cccc(C(F)(F)F)c1Cl)C1=NCCN1` (configuration not stated) gave a melting point of 102 to 103 °C. With `O=C(Nc1ccc(N(CCCl)CCCl)cc1)Nc1c2ccccc2nc2ccccc12` the melting point was 184 to 186 °C. `CC(C)(O)c1ccc(C#N)cc1` showed a melting point of 45 to 47 °C. In the case of `O=C(O)c1cn(C2CSC2)c2c(F)c(F)c(F)cc2c1=O`, the melting point is reported as 172 to 175 °C. Compound `CCOC(=O)C(C)Oc1ccc(Nc2ccc(C(F)(F)F)cc2[N+](=O)[O-])cc1` (configuration not stated) has a melting point of 61 to 63 °C. Work on `COc1ccc(C(=O)CC(Cc2ccccc2)C(=O)O)cc1` (single isomer, unassigned; (+)) yielded a melting point of 93 °C. Work on `COc1ccc(CN(C)CCOc2ccc(NC(=O)c3cccc4c(=O)c5cc(SC)ccc5[nH]c34)cc2)cc1OC` yielded a melting point of 160 °C. With `COc1c(Cc2c[nH]c3cccc(C(=O)O)c23)[nH]c(=O)c(CC(C)C)[n+]1[O-]` the melting point was 160 to 164 °C. Work on `O=c1c(Cl)nsnc1Cl` yielded a melting point of 81 to 82 °C. With `CCCCCCCCCCCCCCCCCC(=O)OC1CC(C)(C)N(OC(C)=O)C(C)(C)C1` the melting point was 63 to 70 °C. In the case of `Clc1cnc(Oc2cccc(C=C(Br)Br)c2)nc1`, the melting point is reported as 68 °C. For `CCCc1c(OCCCCCC#N)ccc(C(=O)c2ccccc2O)c1O`, the melting point was 62 to 63 °C. Compound `Ic1nnnn1C1CCCC1` has a melting point of 119 °C. `Cn1nc2c(-c3ccc(Cl)cc3Cl)cccc2c1-c1nnco1` gave a melting point of 199 to 201 °C. `O=c1[nH]c(SCc2ccccc2)nc2c1NCN2C(c1ccccc1)(c1ccccc1)c1ccccc1` showed a melting point of 267 to 270 °C. `Cc1nn(-c2cncc(F)c2)cc1N` showed a melting point of 136 to 138 °C. For `Nc1ccc(C2CCc3ccccc3O2)cc1` (configuration not stated), the melting point was 85 to 87 °C. In the case of `Cc1c(C)c(C)c(S(=O)(=O)NC(Cc2nc3ccc(C=CCNC4=NCCN4)cc3c(=O)[nH]2)C(=O)O)c(C)c1C` (configuration not stated), the melting point is reported as 131 to 135 °C. With `OCc1sccc1C=Cc1csc2ccccc12` the melting point was 114 to 115 °C. In the case of `N#CC(=Cc1cc2cccnc2n(-c2cc(Cl)cc(Cl)c2)c1=O)c1ccccn1`, the melting point is reported as 319 °C. For `CSc1nc(=O)[nH]c(C)c1Br`, the melting point was 244 °C. For `CN(C)CCCOc1ccc(C(=O)NN)cc1`, the melting point was 79.5 to 81 °C. `CCOc1ccc([N+](=O)[O-])cc1NC(C)=O` showed a melting point of 195 to 198 °C.
